Source: PMC10115808, “Parahydrogen-induced polarization allows 2000-fold signal enhancement in biologically active derivatives of the peptide-based drug octreotide” (Scientific Reports, 2023)
“Also recorded” adds a separate entry of the source.

Assays:
A549 cells = assay: Cell binding assay of TAMRA-conjugated octreotide variants on A549 cells (flow cytometry); design: species or system human; conditions: neat TAMRA versus fluorescence marked octreotide 1, Fig. S-23
Description: (§1) In order to check whether the modifications on the octreotide have an influence on its interaction with somatostatin receptors in living cells, a binding study on different human cell lines was performed. For the detection of the bound peptides, octreotide and the derivatives were further modified by attaching the fluorophore TAMRA to the N terminus. To prevent the fluorophore from interacting with the binding site of octreotide derivatives, a 4,7,10-trioxa-1,13-tridecanediamine succinate (TTDS) spacer was added between the peptide N terminus and the N-hydroxy succinimide (NHS)-activated fluorophore. Both, the linker and the fluorophore, were attached to the peptides by manual SPPS (Fig. 5).
(§2) Human lung cancer cells A549 and human embryonic kidney cells HEK293 were utilized for the binding studies. A549 are widely used in binding studies with somatostatin analogues[61],[62]. […]
(§3) A549 cells (DSMZ ACC 107) and HEK293 cell s (DSMZ ACC 308) were cultured in complete growth medium consisting of Dulbecco’s MEM with 10 % fetal bovine serum (FBS) and 1x penicillin/streptomycin. […] After incubation, the cells were washed three times with ice -cold PBS-F. Using a CytoFlexS flow cytometer, PE -fluorescence was measured. […]

HEK293 cells = assay: Cell binding assay of TAMRA-conjugated octreotide variants on HEK293 cells (flow cytometry); design: species or system human; conditions: neat TAMRA versus fluorescence marked octreotide 1, Fig. S-24
Description: as §1, §2, §3

TAMRA
Binding efficiency (fluorescence) of TAMRA alone compared to TAMRA-linker-octreotide (A549 cells): about half the fluorescence; also recorded: about two times reduced binding efficiency | Binding efficiency (fluorescence) of TAMRA alone compared to TAMRA-linker-octreotide (HEK293 cells): about half the fluorescence; also recorded: about two times reduced binding efficiency
